# Patent EP3256120B1, “PSORALEN DERIVATIVES AS NON-PEPTIDIC INHIBITORS OF CHYMOTRYPSIN-LIKE ACTIVITY OF THE IMMUNOPROTEASOME” (Univerza v Ljubljani, priority 2015, dated 2016)
# Test system: other catalytic subunits (β1, β1i, β2, β2i)
# Test: not given
# Details: cited from earlier work
row,SMILES,inhibition of other catalytic subunits
1,CC1=C(C(=O)N[C@H](C)C(=O)N[C@@H](Cc2c[nH]c3ccccc23)C(=O)N[C@@H](Cc2ccccc2)C(=O)[C@@]2(C)CO2)Cc2ccccc21 [PR-924],little or no inhibition

# Target: T1, β5i subunit of human immunoproteasome (Homo sapiens, UniProt P28062)
# T1 construct: purchased Boston Biochem, Inc., Cambridge, MA, USA
# Test: Preliminary evaluation of inhibition of the β5i subunit (residual activity, Suc-LLVY-AMC fluorescence)
# Assay type: biochemical
# Details: test compound 10 µM, 30 min preincubation at 37 °C, Suc-LLVY-AMC 25 µM, immunoproteasome 0.25 µg/mL
# Protocol: Appropriate stock solutions (mM concentration) of the test compounds were prepared in DMSO. Subsequent dilutions of the compounds, as well as the immunoproteasome and the substrate were prepared in buffered solution (50 mM Tris-HCI (pH 8.0), 0.5 mM EDTA, 0.01% SDS). To a 96-well black microtiter plate, human immunoproteasome (final concentration, 0.25 µg/mL) (Boston Biochem, Inc., Cambridge, MA, USA) was added, followed by either test compounds (10 µM final concentration) or buffered solution (with and without the DMSO), which accounted for the control group. Microtiter plate was covered with aluminum foil and incubated at 37 °C for 30 minutes with medium agitation. The reaction was initiated by the addition of β5- and β5i-selective substrate Suc-LLVY-AMC (25 µM final concentration). The reaction progress was recorded on the BioTek Synergy HT microplate reader by monitoring fluorescence at 460 nm (λex = 360 nm) every 5 minutes for 120 min at 37 °C. At least two independent experiments were performed. The initial linear ranges (between 20th and 60th minute) were used to calculate the slope of the line (k) by dividing the difference of fluorescence intensities (F) with the time difference (t) (Equation 1). The residual activities in percentages were calculated from the slopes obtained (Equation 2). The calculations were performed in Microsoft Office Excel 2007. k = ΔF/Δt [formula] • k slope of the line • F fluorescence intensity • t time (min) Residualactivityin% = kt /knt *100% [formula] • kt slope of the line for the treated enzyme • knt slope of the line for the non-treated enzyme
row,SMILES,RA (%)
1,COc1ccc(-c2coc3cc4oc(=O)c(CCC(=O)O)c(C)c4cc23)cc1,84
2,Cc1c(CCC(=O)O)c(=O)oc2cc3occ(C4CCCCC4)c3cc12,102
3,Cc1c(N)c(=O)oc2cc3occ(-c4ccccc4)c3cc12,88
4,"Cc1coc2cc3oc(=O)c(CC(=O)O)c(C)c3cc12 [n=1, 1R=Me]",88
5,"Cc1coc2cc3oc(=O)c(CCC(=O)O)c(C)c3cc12 [n=2, 1R=Me]",94
6,"Cc1c(CCC(=O)O)c(=O)oc2cc3occ(C(C)(C)C)c3cc12 [n=2, 1R=t-Bu]",83

# The next lines start with the values.
row,RA (%),SMILES
1,100,Cc1cc(-c2coc3cc4oc(=O)c(CCC(=O)O)c(C)c4cc23)c(C)o1
2,82,Cc1c(C(=O)O)c(=O)oc2cc3occ(-c4ccccc4)c3cc12
3,85,"Cc1c(CC(=O)O)c(=O)oc2cc3occ(C(C)(C)C)c3cc12 [n=1, 1R=t-Bu]"

# Target: T1, β5i subunit of human immunoproteasome
# Test: Evaluation of reversible inhibitors of the β5i subunit (mode of inhibition and Ki, Dixon plots)
# Assay type: biochemical
# Details: competitive inhibitors (footnote b), Suc-LLVY-AMC 12.5 µM to 125 µM, immunoproteasome 0.25 µg/mL
# Protocol: The test compounds from the preliminary inhibitory assay with residual activities equal to or lower than 60% were characterized further by determining the mode of inhibition (competitive, non-competitive, uncompetitive, mixed inhibition). The assays were performed as described above. Five or more different concentrations of the test compounds ranging from 0.1 µM to 100 µM were used to determine the kinetic parameters at four different substrate concentrations (Suc-LLVY-AMC ranging from 12.5 µM to 125 µM). Final concentration of the immunoproteasome remained the same as before (0.25 µg/mL). The results obtained were analyzed as outlined above (see Equations 1 and 2), and two plots were derived using Microsoft Office Excel 2007:
# - 1/v plotted against inhibitor concentration (Dixon plot; v- velocity, equal to the slope of the line k),
# - [S]/v plotted against different concentrations of inhibitor ([S] equals substrate concentration).
# The mode of inhibition was estimated from the relative positions of the lines obtained.
row,SMILES,Ki [µM]
1,Cc1c(CC(=O)O)c(=O)oc2cc3occ(-c4ccccc4)c3cc12,2.4
2,Cc1c(CCC(=O)O)c(=O)oc2cc3occ(-c4ccccc4)c3cc12,1.6
3,COc1ccc(-c2coc3cc4oc(=O)c(CC(=O)O)c(C)c4cc23)cc1,8.2
4,COc1cccc(-c2coc3cc4oc(=O)c(CC(=O)O)c(C)c4cc23)c1,7
5,Cc1cc(-c2coc3cc4oc(=O)c(CCC(=O)O)c(C)c4cc23)c(C)s1,52.3
6,Cc1cc(-c2coc3cc4oc(=O)c(CC(=O)O)c(C)c4cc23)c(C)o1,351
7,Cc1c(CCC(=O)O)c(=O)oc2cc3occ(-c4ccco4)c3cc12,116
8,O=C(O)Cc1cc2cc3c(-c4ccccc4)coc3cc2oc1=O,3.8

# Continued, values first:
row,Ki [µM],SMILES
1,12.7,Cc1c(CC(=O)O)c(=O)oc2cc3occ(-c4ccc(Br)cc4)c3cc12
2,137,Cc1c(CCC(=O)O)c(=O)oc2cc3occ(-c4ccc(Br)cc4)c3cc12
3,29.6,COc1cccc(-c2coc3cc4oc(=O)c(CCC(=O)O)c(C)c4cc23)c1
4,198,Cc1c(CC(=O)O)c(=O)oc2cc3occ(C4CCCCC4)c3cc12
5,36.5,Cc1cc(-c2coc3cc4oc(=O)c(CC(=O)O)c(C)c4cc23)c(C)s1
6,89.3,Cc1c(CC(=O)O)c(=O)oc2cc3occ(-c4ccco4)c3cc12
7,39.6,Cc1c(CN)c(=O)oc2cc3occ(-c4ccccc4)c3cc12

# Target: T1, β5i subunit of human immunoproteasome
# Test: Evaluation of irreversible inhibitors of the β5i subunit (IC50)
# Assay type: biochemical
# Details: Suc-LLVY-AMC 25 µM, immunoproteasome 0.25 µg/mL, fluorescence increase between 20th and 60th minute
# Protocol: The test compounds with time-dependent inhibitory activities were treated and evaluated as irreversible inhibitors. The assay was performed as described in the 44 section Preliminary evaluation of inhibition of the β5i subunit of human immunoproteasome. At least seven different concentrations of the test compounds ranging from 0.001 µM to 50 µM were used. The final concentrations of the substrate Suc-LLVY-AMC and the immunoproteasome were 25 µM and 0.25 µg/mL, respectively. At least two independent experiments were performed. The increases in fluorescence intensity between 20th and 60th minute and appropriate test compounds concentrations were analyzed with GraphPad Prism 5.01 to determine the IC50 values. Table 1. Inhibitory potencies of reversible psoralen-based inhibitors against the β5i subunit of the human immunoproteasome. The following compounds are not part of the invention.
row,IC50 [µM],SMILES
1,6.4,Cc1c(CC(=O)ON2C(=O)CCC2=O)c(=O)oc2cc3occ(-c4ccccc4)c3cc12
2,0.09,Cc1c(CCC(=O)ON2C(=O)CCC2=O)c(=O)oc2cc3occ(-c4ccccc4)c3cc12
3,20.5,C=CC(=O)Nc1c(C)c2cc3c(-c4ccccc4)coc3cc2oc1=O

# Target: proteasomal β5 (Homo sapiens, UniProt P28074)
# Test: not given
# Details: Singh A.V. et al. 2011; cited from earlier work
row,SMILES,selectivity for inhibition of the β5i over proteasomal β5 [fold]
1,CC1=C(C(=O)N[C@H](C)C(=O)N[C@@H](Cc2c[nH]c3ccccc23)C(=O)N[C@@H](Cc2ccccc2)C(=O)[C@@]2(C)CO2)Cc2ccccc21 [PR-924],> 100

# Test system: normal peripheral blood mononuclear cells
# Test: not given
# Details: exposure to high (up to 20 µM) concentrations; cited from earlier work
row,SMILES,toxicities in normal peripheral blood mononuclear cells
1,CC1=C(C(=O)N[C@H](C)C(=O)N[C@@H](Cc2c[nH]c3ccccc23)C(=O)N[C@@H](Cc2ccccc2)C(=O)[C@@]2(C)CO2)Cc2ccccc21 [PR-924],no significant toxicities

# Target: β5i (Homo sapiens, UniProt P28062)
# Test: not given
# Details: inhibition of the β5i; Singh A.V. et al. 2011; cited from earlier work
row,SMILES,IC50 [µM]
1,CC1=C(C(=O)N[C@H](C)C(=O)N[C@@H](Cc2c[nH]c3ccccc23)C(=O)N[C@@H](Cc2ccccc2)C(=O)[C@@]2(C)CO2)Cc2ccccc21 [PR-924],0.022

# Test system: MHC-I receptors on the surface
# Test: not given
# Details: Muchamuel T. et al. 2009; cited from earlier work
row,SMILES,reduction of the expression of MHC-I receptors on the surface to [%]
1,COc1ccc(C[C@H](NC(=O)[C@H](C)NC(=O)CN2CCOCC2)C(=O)N[C@@H](Cc2ccccc2)C(=O)[C@@]2(C)CO2)cc1 [PR-957],50
